From patent publication US20210205341A1, “COMPOSITIONS COMPRISING HUMAN MILK OLIGOSACCHARIDES FOR USE IN INFANTS OR YOUNG CHILDREN TO PREVENT OR TREAT A HEALTH DISORDER BY INCREASING GLP-1 SECRETION” (NESTEC S.A., priority 2016, published 2021)

Key:
NCI-H716 cells = assay: Calcium assay in NCI-H716 cells (fluorescent calcium sensitive dye); assay type: cell-based, human; conditions: for significance of increase in fluorescence ratio: 5 mg/mL, 10 mg/mL and 20 mg/mL, p<0.05 vs negative control, two-sided t-test; for concentration dependence of calcium response: 1-20 mg/mL; for fluorescence ratio (intracellular calcium response): all tested concentrations: 1, 5, 10 and 20 mg/mL, vs buffer negative control
Description: NCI-H716 is a cell line derived from human L-cells, the enteroendocrine cells that secrete GLP-1, and it is often used as a model of GLP-1 secretion. Unstimulated NCI-H716 cells secrete a basal level of GLP-1 and activation of the cells leads to dose-dependent increase in GLP-1 secretion. Activation of the NCI-H716 cells and subsequent release of GLP-1 can be triggered by nutrients such as palmitic acid, oleic acid, and meat hydrolysate, Gastrin Releasing Peptide (GRP), the cholinergic molecule Carbachol, bitter compounds such as denatonium, ginsenosides and other molecules.
Activation of NCI-H716 cells by ionomycin, GRP, denatonium, or ginsenosides leads to increased intracellular calcium. Elevation of intracellular calcium is therefore a marker of cell activation and in NCI-H716 cells it could be considered as an indicator of GLP-1 release.
A calcium assay was used to determine if NCI-H716 cells respond to human milk oligosaccharides (sialylated oligosaccharides 3SL and 6SL) or components/precursors thereof (lactose and sialic acid). In this assay, cultured NCI-H716 cells were loaded with a fluorescent calcium sensitive dye then stimulated with the HMOs. The response to the stimulus was measured by change in fluorescence ratio in consequence of intracellular calcium increase. The tested HMOs were 3′-sialyllactose (3SL) and 6′-sialyllactose (6SL). They were tested individually.
GRP (Gastrin Releasing Peptide): positive control
Tested HMOs concentrations: 1 mg/mL, 5 mg/mL, 10 mg/mL and 20 mg/mL
Tested lactose and sialic acid concentrations: 5.5 mg/mL and 4.72 mg/mL respectively (correspond to the amounts contained in 10 mg/mL of 3SL, in order to make a suitable comparison with 10 mg/mL of 3SL)

GLP-1 secretion = assay: GLP-1 plasma concentration in IUGR rats fed HMO-supplemented regimen; assay type: in vivo, rat
Description: A wide group of pregnant female rats were bought from Charles River laboratories. They were submitted to food restriction of 60% during the last 10 days of gestation.
Immediately after birth (d=1), the born rat pups—subjects of the experiment—were split into several groups: • IUGR rats (control) (n=20) • IUGR rats+HMO (test groups): During the experiment, they were reared by their mothers for 21 days and supplemented with HMOs (2FL or LNnT). At weaning, they were fed a diet supplemented with the same HMOs, see details below. There were 2 different groups: • IUGR rats+2FL (n=10) • IUGR rats+LNnT (n=10)
IUGR (intrauterine growth restricted) rats were chosen as control model since they have a higher appetite to compensate their growth retardation, and therefore they may not eat in a healthy way with standard diets (e.g. they may have a higher total weight and/or adipose mass increase over their lean mass increase) which may lead to the development and programming for future health conditions including later in life obesity or future related comorbidities like diabetes.
All rat pups were fed from birth (d=1) up to 57 days (d=57) based on the following protocol: • day 1-day 6: all groups of rats were nursed by dam (mothers' milk only) • day 7-day 21: all rats were nursed by dam (mothers' milk only). But in the test groups, 3 g/kg body weight of a HMO were also administered by gavage: 2FL: 3 g/kg body weight, for the group IUGR rats+2FL LNnT: 3 g/kg body weight, for the group IUGR rats+LNnT • day 22-day 57: rats were separated from their mothers and they had the following regimen: • IUGR rats (control): fed with a control diet (composition detailed in table 2), no HMO supplementation
IUGR rats+HMO (test groups): fed with the same diet but supplemented with 4.5 wt % of a HMO (maltodextrin in the total control diet was replaced by the respective tested HMO):
4.5 wt % of 2FL for the group IUGR rats+2FL
4.5 wt % of LNnT for the group IUGR rats+LNnT
GLP-1 secretion in the rats was assessed by determination of its circulating concentration in plasma.

[1] = d=57, 3 g/kg by gavage day 7-21, then diet with 4.5 wt % HMO day 22-57, FIG. 1A partial results
[2] = d=57, 3 g/kg by gavage day 7-21, then diet with 4.5 wt % HMO day 22-57, FIG. 1B final results

Row | Molecule | significance of increase in fluorescence ratio (NCI-H716 cells) | concentration dependence of calcium response (NCI-H716 cells) | fluorescence ratio (intracellular calcium response) (NCI-H716 cells) | GLP-1 plasma concentration increase in comparison with the control group (GLP-1 secretion; [1]) [%] | GLP-1 plasma concentration increase in comparison with the control group (GLP-1 secretion; [2]) [%] | also measured
1 | OC[C@H]1O[C@@H](O[C@H]2[C@H](O)[C@@H](O)C(O)O[C@@H]2CO)[C@H](O)[C@@H](O)[C@H]1O (stereo partly drawn) [Lactose, reference compound] | – | – | – | – | – | activation of NCI-H716 cells (calcium response) (NCI-H716 cells; 5.5 mg/mL (amount contained in 10 mg/mL 3SL)): did not activate the cells
2 | CC(=O)N[C@H]1[C@H]([C@H](O)[C@H](O)CO)O[C@@](O[C@H]2[C@@H](O)[C@@H](CO)O[C@@H](O[C@H]3[C@H](O)[C@@H](O)C(O)O[C@@H]3CO)[C@@H]2O)(C(=O)O)C[C@@H]1O (stereo partly drawn) [3SL, (6R)-5-Acetamido-3,5-dideoxy-6-[(1R,2R)-1,2,3-trihydroxypropyl]-β-L-threo-hex-2-ulopyranonosyl-(2->3)-β-D-galactopyranosyl-(1->4)-D-glucopyranose] | significant | clear concentration dependent calcium response | enhanced | – | – | –
3 | CC(=O)N[C@H]1[C@H](O[C@H]2[C@@H](O)[C@@H](CO)O[C@@H](O[C@H]3[C@H](O)[C@@H](O)C(O)O[C@@H]3CO)[C@@H]2O)O[C@H](CO)[C@@H](O[C@@H]2O[C@H](CO)[C@H](O)[C@H](O)[C@H]2O)[C@@H]1O (mixture of isomers) [LNnT, lacto-N-neotetraose] | – | – | – | 43 | 13 | –
4 | CC(=O)N[C@H]1[C@H]([C@H](O)[C@H](O)CO)O[C@@](OC[C@H]2O[C@@H](O[C@H]3[C@H](O)[C@@H](O)C(O)O[C@@H]3CO)[C@H](O)[C@@H](O)[C@H]2O)(C(=O)O)C[C@@H]1O (stereo partly drawn) [6SL, (6R)-5-Acetamido-3,5-dideoxy-6-[(1R,2R)-1,2,3-trihydroxypropyl]-β-L-threo-hex-2-ulopyranonosyl-(2->6)-β-D-galactopyranosyl-(1->4)-D-glucopyranose] | significant | clear concentration dependent calcium response | enhanced | – | – | –
5 | CC(=O)N[C@H]1[C@H]([C@H](O)[C@H](O)CO)OC(O)(C(=O)O)C[C@@H]1O (stereo partly drawn) [sialic acid, N-acetylneuraminic acid, reference compound] | – | – | – | – | – | activation of NCI-H716 cells (calcium response) (NCI-H716 cells; 4.72 mg/mL (amount contained in 10 mg/mL 3SL)): did not activate the cells
6 | 2′-fucosyllactose [2FL] | – | – | – | 200 | 164 | –
